The subject of test [1] is E. coli BT3(ΔPPO) transformed with Myxococcus xanthus MxPPO (SEQ ID NO: 3) variant I311M. Briefly: Herbicide tolerance test in PPO-deficient E. coli BT3(ΔPPO), growth on plates. Type of test: cell-based. As to conditions: Table 9, light, tiafenacil to 2000 μM, saflufenacil to 200 μM, flumioxazin to 100 μM.
Description: (§1) The mutated CyPPO gene obtained from the Example 2 was transformed to BT3 (ΔPPO) strain which is deficient of PPO activity and cultured in LB media with PPO-inhibiting herbicide, thereby examining whether growth of transformed BT3 was not inhibited.
(§2) BT3 competent cells were transformed with the pET303-ApPPO1 and pET303-MxPPO plasmids and those with a mutation(s) constructed in Example 2 respectively, and were cultured in LB agar media containing carbenicillin (Gold Biotechnology, Co., Ltd.).
(§3) Single colony of E. coli transformed with each CyPPO gene was cultured in 3 ml of LB broth containing carbenicillin overnight, and then was subcultured until absorbance (OD600) reached 0.5 to 1. Then, it was diluted with LB broth to OD600=0.5. Again, the diluted solution was serially diluted 4 times by a factor of one tenth.
(§4) The LB agar media (LB 25 g/l, Bacto agar 15 g/l) containing carbenicillin (100 μg/ml) and 0 to 4,000 μM of various herbicides dissolved in DMSO was prepared. Next, 10 μl of each diluted solution was dropped on the plate and cultured at 37° C. under light (Tables 7, 9 and 10, FIGS. 2 to 6, 13 to 20) or dark (Tables 8 and 11, FIGS. 7 to 12, 21 to 24) for 16 to 20 hours. Then, the extent of tolerance was evaluated.
(§5) The extent of herbicide tolerance of the ApPPO1 or MxPPO mutated genes was evaluated by comparing that of mutated genes with that of ApPPO1 or MxPPO wild type. […]
The subject of test [2] is E. coli BT3(ΔPPO) transformed with Auxenochlorella protothecoides ApPPO1 (SEQ ID NO: 1) variant Y422I (YI). Type of test: cell-based. As to conditions: Table 7, light, 37° C., 16 to 20 hours, vs wild type at highest herbicide concentration.
Description: as §1, §2, §3, §4
(§6) The extent of herbicide tolerance of the ApPPO1 or MxPPO mutated genes was evaluated by comparing that of mutated genes with that of ApPPO1 or MxPPO wild type. The relative tolerance was represented with “+” as a factor of 10 times.
(§7) In Tables 7 to 11, tolerance level was presented as ‘−’ of tolerance of wild type and of variants equivalent to that of wild type, and was done as ‘+’ per each 10 fold resistance until ‘+++++’ as maximal resistance. […] A dilution series (OD600=0.5, 0.05, 0.005, 0.0005, 0.00005) was made and spotted on LB agar plates supplemented with herbicides.
In test [3] the target is T1, Myxococcus xanthus MxPPO (SEQ ID NO: 3) variant A170C, fused to MBP (Myxococcus xanthus, UniProt P56601, A170C).
T1 construct: made in house; host or cells: BL21 CodonPlus(DE3) E. coli
T1 sequence (P56601 whole entry A170C, the tested form may be a part): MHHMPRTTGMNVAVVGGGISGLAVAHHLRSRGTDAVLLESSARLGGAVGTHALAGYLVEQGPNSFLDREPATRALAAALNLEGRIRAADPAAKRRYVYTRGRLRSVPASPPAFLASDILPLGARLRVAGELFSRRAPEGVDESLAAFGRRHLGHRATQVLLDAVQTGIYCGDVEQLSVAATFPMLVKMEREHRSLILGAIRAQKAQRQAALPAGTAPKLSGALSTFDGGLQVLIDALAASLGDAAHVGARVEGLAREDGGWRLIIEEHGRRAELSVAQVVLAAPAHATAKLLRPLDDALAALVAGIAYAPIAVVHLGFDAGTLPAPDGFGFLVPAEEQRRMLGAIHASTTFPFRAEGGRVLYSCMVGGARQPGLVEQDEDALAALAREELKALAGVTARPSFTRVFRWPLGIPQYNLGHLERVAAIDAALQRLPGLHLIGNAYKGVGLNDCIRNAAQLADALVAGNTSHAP
Description: PPO enzyme inhibition assay (IC50), MBP-fused PPO (Table 15). Type of test: biochemical.

Test [4] concerns the target T2, Myxococcus xanthus MxPPO (SEQ ID NO: 3) variant I168C, fused to MBP (Myxococcus xanthus, UniProt P56601, I168C).
T2 construct: For encoding the PPO protein (MxPPO); made in house; host or cells: BL21 CodonPlus(DE3) E. coli
Described as above. Type of test: biochemical.

The target of test [5] is Auxenochlorella protothecoides ApPPO1 (SEQ ID NO: 1) variant F386V, fused to MBP (Auxenochlorella protothecoides, UniProt A0A087SQM0, F386V). Description: PPO enzyme inhibition assay (IC50), MBP-fused PPO. It counts as biochemical.
Auxenochlorella protothecoides ApPPO1 (SEQ ID NO: 1) variant F386V, fused to MBP, sequence (A0A087SQM0 entry or part of it F386V): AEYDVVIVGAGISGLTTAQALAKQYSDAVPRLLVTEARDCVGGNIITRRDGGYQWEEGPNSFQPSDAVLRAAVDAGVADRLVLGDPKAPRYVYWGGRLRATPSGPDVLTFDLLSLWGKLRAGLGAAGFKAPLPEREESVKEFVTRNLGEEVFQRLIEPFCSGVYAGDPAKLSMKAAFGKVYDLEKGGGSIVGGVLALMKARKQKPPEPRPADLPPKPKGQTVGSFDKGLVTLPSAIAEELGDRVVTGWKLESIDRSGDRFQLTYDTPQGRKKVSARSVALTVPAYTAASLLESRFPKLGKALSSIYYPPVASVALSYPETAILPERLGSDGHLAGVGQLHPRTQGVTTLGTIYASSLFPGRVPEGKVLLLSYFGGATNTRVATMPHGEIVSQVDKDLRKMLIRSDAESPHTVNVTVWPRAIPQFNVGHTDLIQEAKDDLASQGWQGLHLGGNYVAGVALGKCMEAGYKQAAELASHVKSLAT
For test [6], the system named is transgenic A. thaliana transformed with ApPPO1 variants, MxPPO or MxPPO variants. Briefly: Herbicide spray test on 4-week-old plants, transgenic. Type of test: in vivo, Arabidopsis thaliana. As to conditions: 100 ml of 1 μM tiafenacil and 0.05% Silwet L-77 per 0.24 m^2. From the text:
A. thaliana was transformed with a binary vector having ORF of a selectable marker, Bar gene (glufosinate-tolerant gene), and ORF of each gene of ApPPO1 variants, MxPPO, and MxPPO variants. The transgenic plant was examined for cross-tolerance towards glufosinate and PPO-inhibiting herbicides. The bar gene was also used to examine whether the transgene was stably inherited during generations. NOS promoter and E9 terminator were used for bar gene expression.
In order to express proteins of ApPPO1 variants, MxPPO, and MxPPO variants in plants, a CaMV35S promoter and a NOS terminator were used. Encoding genes of ApPPO1 variants, MxPPO, and MxPPO variants were introduced into binary vector using XhoI and BamHI restriction enzymes. Furthermore, for confirmation of the protein expression, hemagglutinin (HA) tag was fused to the C-terminal region of PPO protein coding gene using BamHI and SacI restriction enzymes. […]
Each transformed Agrobacterium was screened in spectinomycin-containing LB media. […] After Agrobacterium cell was harvested from the culture media, it was resuspended in the solution containing 5% sucrose (w/v) and 0.05% Silwet L-77 (v/v) (Momentive Performance Materials Co., Ltd.) at an absorbance (OD600) of 0.8. […]

Test [7] concerns E. coli BT3(ΔPPO) transformed with Myxococcus xanthus MxPPO (SEQ ID NO: 3) variant M365V. Description: Herbicide tolerance test in PPO-deficient E. coli BT3(ΔPPO), growth on plates. Type of test: cell-based. As to conditions: Table 9, light, tiafenacil to 2000 μM, saflufenacil to 200 μM, flumioxazin to 100 μM.
Description: as §1, §2, §3, §4, §5
Test [8] addresses Auxenochlorella protothecoides ApPPO1 (SEQ ID NO: 1) variant R140A, fused to MBP (Auxenochlorella protothecoides, UniProt A0A087SQM0, R140A). Description: PPO enzyme inhibition assay (IC50), MBP-fused PPO. It counts as biochemical.
Description: (§8) Thus, PPO proteins of wild type and variants were expressed as fused to MBP and were used for experiments.
(§9) The following process for purification of PPO protein was performed in a 4° C. cold room. […] The column was washed with 3 column volumes of buffer and the presence of protein in the washing solution was examined. When the protein was no longer detected, the washing procedure was terminated. Then, the MBP-PPO protein was eluted with approximately 2 column volumes of buffer containing 20 mM maltose. The protein concentration of each eluent was determined and the elution was stopped when the protein was no longer detected. Ten microliter of each fraction was investigated for protein quantification and SDS-PAGE analysis. […]
(§10) Hundred and eighty microliters of a reaction mixture containing the purified PPO protein were placed in 96 well plates and 20 μl of purified PPO proteins were added. […] The reaction proceeded at room temperature for 30 min and the fluorescence of protoporphyrin IX was measured using Microplate reader (Sense, Hidex) (excitation: 405 nm; emission: 633 nm). […] To this, 2.7 N HCl was added, and the absorbance at 408 nm was measured. A standard curve was generated using standard protoporphyrin IX, and PPO activity was measured by calibration of protoporphyrin IX using the standard curve of protoporphyrin IX.
Test [9] concerns E. coli BT3(ΔPPO) transformed with Myxococcus xanthus MxPPO (SEQ ID NO: 3) variant M365I. Description: Herbicide tolerance test in PPO-deficient E. coli BT3(ΔPPO), growth on plates. As to conditions: Table 9, light, tiafenacil to 2000 μM, saflufenacil to 200 μM, flumioxazin to 100 μM. Type of test: cell-based.
Description: as §1, §2, §3, §4, §5
For test [10], the target named is Auxenochlorella protothecoides ApPPO1 (SEQ ID NO: 1) variant A215L, fused to MBP (Auxenochlorella protothecoides, UniProt A0A087SQM0, A215L). Briefly: biochemical.
Auxenochlorella protothecoides ApPPO1 (SEQ ID NO: 1) variant A215L, fused to MBP, sequence (A0A087SQM0 entry or part of it A215L): as the sequence (A0A087SQM0 entry or part of it F386V) above, with A165L, V336F counted along it
Description: as §8, §9, §10
Test [11] deals with Auxenochlorella protothecoides ApPPO1 (SEQ ID NO: 1) variant A215C, fused to MBP (Auxenochlorella protothecoides, UniProt A0A087SQM0, A215C). Briefly: PPO enzyme inhibition assay (IC50), MBP-fused PPO. Type of test: biochemical.
Auxenochlorella protothecoides ApPPO1 (SEQ ID NO: 1) variant A215C, fused to MBP, sequence (A0A087SQM0 entry or part of it A215C): as the sequence (A0A087SQM0 entry or part of it F386V) above, with A165C, V336F counted along it
Description: as §8, §9, §10
The subject of test [12] is E. coli BT3(ΔPPO) transformed with Auxenochlorella protothecoides ApPPO1 (SEQ ID NO: 1) variant Y422T (YT). Briefly: Herbicide tolerance test in PPO-deficient E. coli BT3(ΔPPO), growth on plates. It counts as cell-based. As to conditions: Table 7, light, 37° C., 16 to 20 hours, vs wild type at highest herbicide concentration.
Description: as §1, §2, §3, §4, §6, §7
Test [13] deals with E. coli BT3(ΔPPO) transformed with Auxenochlorella protothecoides ApPPO1 (SEQ ID NO: 1) variant A215L (AL). The description is as above. It counts as cell-based. As to conditions: Table 7, light, 37° C., 16 to 20 hours, vs wild type at highest herbicide concentration.
Description: as §1, §2, §3, §4, §6, §7

Auxenochlorella protothecoides ApPPO1 (SEQ ID NO: 1) variant R140A, fused to MBP, sequence (A0A087SQM0 entry or part of it R140A): as the sequence (A0A087SQM0 entry or part of it F386V) above, with R90A, V336F counted along it
T2 sequence (P56601 whole entry I168C, the tested form may be a part): as the sequence (P56601 whole entry A170C, the tested form may be a part) above, with I168C, C170A counted along it

`COC(=O)CCNC(=O)C(C)Sc1cc(-n2c(=O)cc(C(F)(F)F)n(C)c2=O)c(F)cc1Cl` (stereo not shown) [tiafenacil]: the “relative herbicide tolerance level” value in test [1] is given as “++ (10-99 fold higher tolerance)”; in [2], “++ (10-99 fold higher tolerance)”; in [7], “+ (1-9 fold higher tolerance)”; in [9] it was “+ (1-9 fold higher tolerance)”; in test [12], “++ (10-99 fold higher tolerance)”; in test [13], “++ (10-99 fold higher tolerance)”. Besides, the IC50 in test [3] was 1680 nM; in [4], 550 nM; in [5], 368 nM; in [8], 86 nM; in test [10], 3460 nM; in test [11], 76 nM. In test [6], the “plant damage after spraying” value is “no damage”.

The values are drawn from patent US20220042033A1, “COMPOSITION AND METHOD FOR CONFERRING AND/OR ENHANCING TOLERANCE AGAINST HERBICIDES BY USING VARIANTS OF PPO” (FarmHannong Co., Ltd., priority 2017, published 2022).
